From US9663513B2, “Pyrimidine PDE10 inhibitors” (Merck Sharp & Dohme Corp., priority 2012, dated 2017) come the findings set out here.

Sequence of human PDE10A2 (Q9Y233 267-1055): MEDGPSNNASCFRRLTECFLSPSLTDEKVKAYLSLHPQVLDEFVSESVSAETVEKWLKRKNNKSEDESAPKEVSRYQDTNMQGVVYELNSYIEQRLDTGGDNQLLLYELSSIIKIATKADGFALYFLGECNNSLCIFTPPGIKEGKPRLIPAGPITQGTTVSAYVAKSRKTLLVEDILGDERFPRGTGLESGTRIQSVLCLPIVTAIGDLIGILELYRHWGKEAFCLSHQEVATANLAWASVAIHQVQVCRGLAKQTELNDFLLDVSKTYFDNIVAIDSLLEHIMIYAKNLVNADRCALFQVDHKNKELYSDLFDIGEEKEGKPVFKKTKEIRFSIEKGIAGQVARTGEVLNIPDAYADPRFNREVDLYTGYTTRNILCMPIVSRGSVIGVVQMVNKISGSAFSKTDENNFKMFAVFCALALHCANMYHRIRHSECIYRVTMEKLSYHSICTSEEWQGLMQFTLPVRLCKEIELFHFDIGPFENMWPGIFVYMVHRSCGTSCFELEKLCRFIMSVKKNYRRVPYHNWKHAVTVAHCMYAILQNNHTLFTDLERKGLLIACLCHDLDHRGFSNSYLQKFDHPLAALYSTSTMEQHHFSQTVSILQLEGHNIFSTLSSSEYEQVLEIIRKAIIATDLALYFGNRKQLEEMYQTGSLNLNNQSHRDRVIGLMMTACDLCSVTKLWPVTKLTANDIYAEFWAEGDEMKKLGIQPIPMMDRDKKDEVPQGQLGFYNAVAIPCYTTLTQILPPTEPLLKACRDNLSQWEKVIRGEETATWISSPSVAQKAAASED

The target of the test is human PDE10A2 (Homo sapiens (Human), UniProt Q9Y233). Description: PDE10 fluorescence polarization (IMAP FP) inhibition assay. The class given is biochemical. The settings on record: human PDE10A2 from transfected AD293 cells; FAM-labeled cAMP 50 nM; apparent inhibition constant; read-out: PDE10A Ki. How it is done:
The activity of the compounds in accordance with the present invention as PDE10 inhibitors may be readily determined without undue experimentation using a fluorescence polarization (FP) methodology that is well known in the art (Huang, W., et al., J. Biomol Screen, 2002, 7: 215).
In a typical experiment the PDE10 inhibitory activity of the compounds of the present invention was determined in accordance with the following experimental method. PDE10A2 was amplified from human fetal brain cDNA (Clontech, Mountain View, Calif.) using a forward primer corresponding to nucleotides 56-77 of human PDE10A2 (Accession No. AF127480, Genbank Identifier 4894716), containing a Kozak consensus sequence, and a reverse primer corresponding to nucleotides 2406-2413 of human PDE10A2 (Accession No. AF127480, Genbank Identifier 4894716). Amplification with Easy-A polymerase (Stratagene, La Jolla, Calif.) was 95° C. for 2 minutes followed by thirty three cycles of 95° C. for 40 seconds, 55° C. for 30 seconds, and 72° C. for 2 minutes 48 seconds. Final extension was 72° C. for 7 minutes. The PCR product was TA cloned into pcDNA3.2-TOPO (Invitrogen, Carlsbad, Calif.) according to standard protocol. AD293 cells with 70-80% confluency were transiently transfected with human PDE10A2/pcDNA3.2-TOPO using Lipofectamine 2000 according to manufacturer specifications (Invitrogen, Carlsbad, Calif.). Cells were harvested 48 hours post-transfection and lysed by sonication (setting 3, 10×5 sec pulses) in a buffer containing 20 mM HEPES, 1 mM EDTA and protease inhibitor cocktail (Roche). Lysate was collected by centrifugation at 75,000×g for 20 minutes. Supernatant containing the cytoplasmic fraction was used for evaluation of PDE10A2 activity. The fluorescence polarization assay for cyclic nucleotide phosphodiesterases was performed using an IMAP® FP kit supplied by Molecular Devices, Sunnyvale, Calif. (product # R8139). IMAP® technology has been applied previously to phosphodiesterase assays (Huang, W., et al., J. Biomol Screen, 2002, 7: 215). Assays were performed at room temperature in 384-well microtiter plates with an incubation volume of 20.2 μL. Solutions of test compounds were prepared in DMSO and serially diluted with DMSO to yield 8 μL of each of 10 solutions differing by 3-fold in concentration, at 32 serial dilutions per plate. […] 0% of inhibition is determined by using DMSO (1% final concentrations).
A Labcyte Echo 555 (Labcyte, Sunnyvale, Calif.) is used to dispense 200 nL from each well of the titration plate to the 384 well assay plate. A solution of enzyme (1/1600 dilution from aliquots; sufficient to produce 20% substrate conversion) and a separate solution of FAM-labeled cAMP PDE from Molecular Devices (product # R7506), at a final concentration of 50 nM are made in the assay buffer (10 mM Tris HCl, pH 7.2, 10 mM MgCl2, 0.05% NaN3 0.01% Tween-20, and 1 mM DTT). The enzyme and the substrate are then added to the assay plates in two consecutive additions of 10 μL, and then shaken to mix. The reaction is allowed to proceed at room temperature for 30 minutes. […] The enzymatic reaction is stopped by addition of 60 μL of the binding solution to each well of the assay plates and the plates are sealed and shaken for 10 seconds. The plate was incubated at room temperature for at least one hour prior to determining the fluorescence polarization (FP). The parallel and perpendicular fluorescence of each well of the plate was measured using a Perkin Elmer EnVision™ plate reader (Waltham, Mass.).
Fluorescence polarization (mP) was calculated from the parallel (S) and perpendicular (P) fluorescence of each sample well and the analogous values for the median control well, containing only substrate (So and Po), using the following equation: Polarization(mP)=1000*(S/So−P/Po)/(S/So+P/Po).
Dose-inhibition profiles for each compound were characterized by fitting the mP data to a four-parameter equation given below.
A general note: Fluorescence polarisation rises when a labelled molecule tumbles more slowly, as on binding a larger partner.
For `COc1ccc([C@H]2C[C@@H]2COc2nc(C)ncc2-c2cnc(C(C)(C)O)cn2)nc1` [Example 66, 2-(5-(4-(((1S,2S)-2-(5-methoxypyridin-2-yl)cyclopropyl)methoxy)-2-methylpyrimidin-5-yl)pyrazin-2-yl)propan-2-ol], the Ki amounted to 3.14 nM.

Take `COc1ccc([C@H]2C[C@@H]2COc2nc(C)ncc2-c2ccc(O)nc2)nc1` [Example 69, 5-(4-(((1S,2S)-2-(5-methoxypyridin-2-yl)cyclopropyl)methoxy)-2-methylpyrimidin-5-yl)pyridin-2-ol]: the Ki was 0.94 nM.

Consider `COc1ccc([C@H]2C[C@@H]2COc2nc(C)ncc2-c2cnc(O)nc2)nc1` [Example 70, 4′-(((1S,2S)-2-(5-methoxypyridin-2-yl)cyclopropyl)methoxy)-2′-methyl-5,5′-bipyrimidin-2-ol], for which the Ki stood at 1.64 nM.

Turning to `COc1ccc([C@H]2C[C@@H]2COc2nc(C)ncc2-c2ccc(OC(CO)CO)nc2)nc1` [Example 71, 2-(5-(4-(((1S,2S)-2-(5-methoxypyridin-2-yl)cyclopropyl)methoxy)-2-methylpyrimidin-5-yl)pyridin-2-yloxy)propane-1,3-diol], the Ki came to 4.78 nM.

As to `COc1ccc([C@H]2C[C@@H]2COc2nc(C)ncc2-c2ccc(OCC3CC3)nc2)nc1` [Example 72, 5-(6-(cyclopropylmethoxy)pyridin-3-yl)-4-(((1S,2S)-2-(5-methoxypyridin-2-yl)cyclopropyl)methoxy)-2-methylpyrimidine], the Ki turned out to be 0.5 nM.

With `COc1ccc([C@H]2C[C@@H]2COc2nc(C)ncc2-c2cnsc2)nc1` [Example 73, 4-(4-(((1S,2S)-2-(5-methoxypyridin-2-yl)cyclopropyl)methoxy)-2-methylpyrimidin-5-yl)isothiazole], the Ki stood at 1.13 nM.

Consider `COc1ccc([C@H]2C[C@@H]2COc2nc(C)ncc2-c2ccnc(OC(C)C)c2)nc1` [Example 74, 5-(2-isopropoxypyridin-4-yl)-4-(((1S,2S)-2-(5-methoxypyridin-2-yl)cyclopropyl)methoxy)-2-methylpyrimidine], for which the Ki was 0.18 nM.

For the compound `CCOc1cc(-c2cnc(C)nc2OC[C@H]2C[C@@H]2c2ccc(OC)cn2)ccn1` [Example 75, 5-(2-ethoxypyridin-4-yl)-4-(((1S,2S)-2-(5-methoxypyridin-2-yl)cyclopropyl)methoxy)-2-methylpyrimidine], the Ki was 0.14 nM.

As for `COc1ccc([C@H]2C[C@@H]2COc2nc(C)ncc2C2=CC(=O)CC2)nc1` [Example 76, 3-(4-(((1S,2S)-2-(5-methoxypyridin-2-yl)cyclopropyl)methoxy)-2-methylpyrimidin-5-yl)cyclopent-2-enone], the Ki came to 0.48 nM.

With `COc1ccc([C@H]2C[C@@H]2COc2nc(C)ncc2C2=CC(=O)CC2)nc1` [Example 77, 3-(4-(((1S,2S)-2-(5-methoxypyridin-2-yl)cyclopropyl)methoxy)-2-methylpyrimidin-5-yl)cyclopent-2-enone], the Ki is 6.28 nM.

Turning to `COc1ccc([C@H]2C[C@@H]2COc2nc(C)ncc2C2CCC(=O)C2)nc1` (stereo partly shown) [Example 78], the Ki is 8.35 nM.

With `COc1ccc([C@H]2C[C@@H]2COc2nc(C)ncc2[C@H]2CC[C@@H](O)C2)nc1` [Example 79, (1R,3S)-3-(4-(((1S,2S)-2-(5-methoxypyridin-2-yl)cyclopropyl)methoxy)-2-methylpyrimidin-5-yl)cyclopentanol], the Ki stood at 5.6 nM.

Regarding `COc1ccc([C@H]2C[C@@H]2COc2nc(C)ncc2[C@@H]2CC[C@@H](O)C2)nc1` [Example 80, (1R,3R)-3-(4-(((1S,2S)-2-(5-methoxypyridin-2-yl)cyclopropyl)methoxy)-2-methylpyrimidin-5-yl)cyclopentanol], the Ki worked out at 5.48 nM.

`COc1ccc([C@H]2C[C@@H]2COc2nc(C)ncc2-c2ccc(Br)cc2)nc1` [Example 81, 5-(4-bromophenyl)-4-(((1S,2S)-2-(5-methoxypyridin-2-yl)cyclopropyl)methoxy)-2-methylpyrimidine]: the Ki worked out at 4.97 nM.

Regarding `COc1ccc([C@H]2C[C@@H]2COc2nc(C)ncc2-c2cn(C)nc2C(F)(F)F)nc1` [Example 82, 4-(((1S,2S)-2-(5-methoxypyridin-2-yl)cyclopropyl)methoxy)-2-methyl-5-(1-methyl-3-(trifluoromethyl)-1H-pyrazol-4-yl)pyrimidine], the Ki was determined as 0.2 nM.

In the case of `CCc1ccc(-c2cnc(C)nc2OC[C@H]2C[C@@H]2c2ccc(OC)cn2)cn1` [Example 85, 5-(6-ethylpyridin-3-yl)-4-(((1S,2S)-2-(5-methoxypyridin-2-yl)cyclopropyl)methoxy)-2-methylpyrimidine], the Ki is 0.86 nM.

As to `COc1ccc([C@H]2C[C@@H]2COc2nc(C)ncc2-c2ccc(Br)cn2)nc1` [Example 86, 5-(5-bromopyridin-2-yl)-4-(((1S,2S)-2-(5-methoxypyridin-2-yl)cyclopropyl)methoxy)-2-methylpyrimidine], the Ki is 11.6 nM.

In the case of `COc1ccc([C@H]2C[C@@H]2COc2nc(C)ncc2-c2cc(C(F)(F)F)cnc2Cl)nc1` [Example 87, 5-(2-chloro-5-(trifluoromethyl)pyridin-3-yl)-4-(((1S,2S)-2-(5-methoxypyridin-2-yl)cyclopropyl)methoxy)-2-methylpyrimidine], the Ki came to 0.44 nM.

Regarding `COc1ccc([C@H]2C[C@@H]2COc2nc(C)ncc2-c2cc(Cl)ncc2C(F)(F)F)nc1` [Example 88, 5-(2-chloro-5-(trifluoromethyl)pyridin-4-yl)-4-(((1S,2S)-2-(5-methoxypyridin-2-yl)cyclopropyl)methoxy)-2-methylpyrimidine], the Ki worked out at 0.99 nM.

Turning to `COc1ccc([C@H]2C[C@@H]2COc2nc(C)ncc2-c2ccc(C3(O)CCCC3)nc2)nc1` [Example 89, 1-(5-(4-(((1S,2S)-2-(5-methoxypyridin-2-yl)cyclopropyl)methoxy)-2-methylpyrimidin-5-yl)pyridin-2-yl)cyclopentanol], the Ki is 0.06 nM.

With `COc1ccc([C@H]2C[C@@H]2COc2nc(C)ncc2-c2ccc3[nH]ccc3c2)nc1` [Example 90, 5-(4-(((1S,2S)-2-(5-methoxypyridin-2-yl)cyclopropyl)methoxy)-2-methylpyrimidin-5-yl)-1H-indole], the Ki came out at 2.13 nM.

For the compound `COc1ccc([C@H]2C[C@@H]2COc2nc(C)ncc2-c2ccc(C3(O)COC3)nc2)nc1` [Example 91], the Ki came to 0.16 nM.

For the compound `COc1ccc([C@H]2C[C@@H]2COc2nc(C)ncc2-c2ccc(C3(O)CCC3)nc2)nc1` [Example 92, 1-(5-(4-(((1S,2S)-2-(5-methoxypyridin-2-yl)cyclopropyl)methoxy)-2-methylpyrimidin-5-yl)pyridin-2-yl)cyclobutano1], the Ki was 0.12 nM.

Turning to `COc1ccc([C@H]2C[C@@H]2COc2nc(C)ncc2-c2ccc(-c3ncno3)cc2)nc1` [Example 93, 5-(4-(4-(((1S,2S)-2-(5-methoxypyridin-2-yl)cyclopropyl)methoxy)-2-methylpyrimidin-5-yl)phenyl)-1,2,4-oxadiazole], the Ki was found to be 0.15 nM.

With `COc1ccc([C@H]2C[C@@H]2COc2nc(C)ncc2-c2ccc(-c3nc(CCl)no3)cc2)nc1` [Example 94, 3-(chloromethyl)-5-(4-(4-(((1S,2S)-2-(5-methoxypyridin-2-yl)cyclopropyl)methoxy)-2-methylpyrimidin-5-yl)phenyl)-1,2,4-oxadiazole], the Ki stood at 1.17 nM.
